Experimental data as given in US6894046B2, “IL-5 inhibiting 6-azauracil derivatives” (Janssen Pharmaceutica N.V., priority 1998, dated 2005).

These compounds were tested on IL-5 production in human blood (assay: In vitro inhibition of IL-5 production in human blood (phytohemagglutinin-stimulated whole blood, ELISA)). Conditions: test dose 1×10^−6 M, phytohemagglutinin 2 μg/ml, 48 hours.
Format: cell-based
Description: EXAMPLE C.1: IN VITRO INHIBITION OF IL-5 PRODUCTION IN HUMAN BLOOD
Peripheral blood from healthy male donors was drawn into heparinized syringes (12.5 U heparin/ml). Blood samples were three-fold diluted in RMPI 1640 medium (Life Technologies, Belgium) supplemented with 2 mM L-glutamine, 100 U/ml penicillin and 100 μg/ml streptomycin, and 300 μl fractions were distributed in 24-well multidisc plates. Blood samples were preincubated (60 minutes at 37° C.) in a humidified 6% CO2-atmosphere with 100 μl of drug solvent (final concentration 0.02% dimethylsulfoxide in RPMI 1640) or with 100 μl of an appropriate dose of test compound before being stimulated by the addition of 100 μl of phytohemagglutinin HA17 (Murex, UK) at a final concentration of 2 μg/ml. After 48 hours, cell-free supernatant fluids were collected by centrifugation and stored at −70° C. until tested for the presence of IL-5.
IL-5 measurements were conducted as described in Van Wauwe et al. (1996, Inflamm Res, 45, 357-363) on page 358 using ELISA.
Table 6 lists the percentage inhibition of IL-5 production (column “% inh”) at a test dose of 1×10^−6 M, or in case the percentage inhibition is marked with an “*” 1×10^−5 M, for the compounds of the present invention.

Compound	% inh. (percentage inhibition of IL-5 production) [%]
CC(C)(c1nc(-c2cccc(Cl)c2)c(-c2ccccc2)s1)c1c(Cl)cc(-n2ncc(=O)[nH]c2=O)cc1Cl [Compound 37]	92
CC(C)(c1nc(-c2ccccc2)c(C(=O)c2ccccc2)s1)c1c(Cl)cc(-n2ncc(=O)[nH]c2=O)cc1Cl [Compound 25]	79
CC(C)(c1nc(-c2ccc(-c3cccs3)s2)cs1)c1c(Cl)cc(-n2ncc(=O)[nH]c2=O)cc1Cl [Compound 84]	14
CC(C)(c1nc(-c2ccncc2)cs1)c1c(Cl)cc(-n2ncc(=O)[nH]c2=O)cc1Cl [Compound 7]	88
CC(=O)N1CCC(c2sc(C(C)(C)c3c(Cl)cc(-n4ncc(=O)[nH]c4=O)cc3Cl)nc2-c2ccccc2)CC1 [Compound 39]	72
CC(C)(c1nc(-c2ccccc2F)c(-c2ccccc2)s1)c1c(Cl)cc(-n2ncc(=O)[nH]c2=O)cc1Cl [Compound 34]	93
CC(C)(c1nc(-c2ccccc2)c(-c2cccc(NS(N)(=O)=O)c2)s1)c1c(Cl)cc(-n2ncc(=O)[nH]c2=O)cc1Cl [Compound 60]	28
1-[[2-[1-[2,6-dichloro-4-(4,5-dihydro-3,5-dioxo-1,2,4-triazin-2(3H)-yl)-phenyl]-1-methylethyl]-4-phenyl-2-thiazolyl]acetyl-4-phenylmethyl)piperazine [Compound 35]	63
Cc1sc(C(C)(C)c2c(Cl)cc(-n3ncc(=O)[nH]c3=O)cc2Cl)nc1-c1cccc(F)c1 [Compound 17]	94
CC(C)(NC(=O)c1cccnc1)c1c(Cl)cc(-n2ncc(=O)[nH]c2=O)cc1Cl [Compound 101]	19
CC(C)(c1nc(-c2cccs2)c(C(=O)O)s1)c1c(Cl)cc(-n2ncc(=O)[nH]c2=O)cc1Cl [Compound 120]	8
CC(C)(c1noc(-c2ccccc2F)n1)c1c(Cl)cc(-n2ncc(=O)[nH]c2=O)cc1Cl [Compound 86]	88
CN(C)Cc1sc(C(C)(C)c2c(Cl)cc(-n3ncc(=O)[nH]c3=O)cc2Cl)nc1-c1ccccc1.Cl [Compound 2]	92
Cc1ccc(-c2nc(C(C)(C)c3c(Cl)cc(-n4ncc(=O)[nH]c4=O)cc3Cl)sc2Br)s1 [Compound 111]	88
CC(C)(c1noc(-c2ccccc2CO)n1)c1c(Cl)cc(-n2ncc(=O)[nH]c2=O)cc1Cl [Compound 155]	85
COC(=O)c1ccc(-c2nc(C(C)(C)c3c(Cl)cc(-n4ncc(=O)[nH]c4=O)cc3Cl)no2)nc1 [Compound 146]	4
CC(C)(c1nc(-c2ccccc2)c(CC(=O)O)s1)c1c(Cl)cc(-n2ncc(=O)[nH]c2=O)cc1Cl [Compound 19, 2-[1-[2,6-dichloro-4-(4,5-dihydro-3,5-dioxo-1,2,4-triazin-2(3H)-yl)phenyl]1-α-methylethyl]-4-phenyl-5-thiazoleacetic acid]	13
CC(C)(c1noc(-c2ccccn2)n1)c1c(Cl)cc(-n2ncc(=O)[nH]c2=O)cc1Cl [Compound 98]	58
COC(=O)c1cccc(-c2nc(C(C)(C)c3c(Cl)cc(-n4ncc(=O)[nH]c4=O)cc3Cl)no2)c1 [Compound 133]	55
CC(C)(c1nc(-c2ccc(F)cc2F)cs1)c1c(Cl)cc(-n2ncc(=O)[nH]c2=O)cc1Cl [Compound 18]	91
CCOC(=O)Cc1sc(C(C)(C)c2c(Cl)cc(-n3ncc(=O)[nH]c3=O)cc2Cl)nc1-c1ccccc1 [Compound 9]	88
CC(C)OC(=O)c1sc(C(C)(C)c2c(Cl)cc(-n3ncc(=O)[nH]c3=O)cc2Cl)nc1-c1ccccc1 [Compound 122]	94
CC(C)(c1nc(-c2cccs2)cs1)c1c(Cl)cc(-n2ncc(=O)[nH]c2=O)cc1Cl [Compound 5]	90
CC(C)(c1nc(-c2ccccc2Cl)c(-c2ccccc2)s1)c1c(Cl)cc(-n2ncc(=O)[nH]c2=O)cc1Cl [Compound 32]	91
CN1CCN(c2sc(C(C)(C)c3c(Cl)cc(-n4ncc(=O)[nH]c4=O)cc3Cl)nc2-c2ccccc2)CC1 [Compound 16]	57
CC(C)(c1noc(-c2cccc(Cl)c2)n1)c1c(Cl)cc(-n2ncc(=O)[nH]c2=O)cc1Cl [Compound 93]	84
CC(C)(c1nc(-c2cccc(F)c2)cs1)c1c(Cl)cc(-n2ncc(=O)[nH]c2=O)cc1Cl [Compound 28]	83

Same assay, conditions: test dose 1×10^−6 M, phytohemagglutinin 2 μg/ml, 48 hours, read-out: % inh. (percentage inhibition of IL-5 production)

Compound	inhibition at 1 µM [%]
CC(C)(c1nc(-c2ccsc2)cs1)c1c(Cl)cc(-n2ncc(=O)[nH]c2=O)cc1Cl [Compound 72, 2-[3,5-dichloro-4-[1-methyl-1-[4-(3-thienyl)-2-thiazolyl]ethyl]phenyl]-1,2,4-triazine-3,5(2H,4H)-dione]	84
CC(C)(c1noc(-c2ccncc2)n1)c1c(Cl)cc(-n2ncc(=O)[nH]c2=O)cc1Cl [Compound 97, 2-[3,5-dichloro-4-[1-methyl-1-[5-(4-pyridinyl)-1,2,4-oxadiazol-3-yl]ethyl]phenyl]-1,2,4-triazine-3,5(2H,4H)-dione]	90
CC(C)(c1nc(-c2ccccc2)c(-c2cccc(N)c2)s1)c1c(Cl)cc(-n2ncc(=O)[nH]c2=O)cc1Cl [Compound 50, 2-[4-[1-[5-(3-aminophenyl)4-phenyl-2-thiazolyl]-1-methylethyl]-3,5-dichlorophenyl]-1,2,4-triazine-3,5(2H,4H)-dione]	91
CC(C)(c1nc(-c2ccccc2)cs1)c1c(Cl)cc(-n2ncc(=O)[nH]c2=O)cc1Cl [Compound 1, 2-[3,5-dichloro-4-[1-methyl-1-(4-phenyl-2-thiazolyl)ethyl]phenyl]-1,2,4-triazine-3,5(2H,4H)-dione]	90.5
CC(C)(c1nc(-c2ccccc2)c(-c2cccc(NC(N)=O)c2)s1)c1c(Cl)cc(-n2ncc(=O)[nH]c2=O)cc1Cl [Compound 54, N-[3-[2-[1-[2,6-dichloro-4-(4,5-dihydro-3,5-dioxo-1,2,4-triazin-2(3H)-yl)phenyl]-1-methylethyl]-4-phenyl-5-thiazolyl]phenyl]urea]	61
COCCN1CCN(Cc2sc(C(C)(C)c3c(Cl)cc(-n4ncc(=O)[nH]c4=O)cc3Cl)nc2-c2ccccc2)CC1 [Compound 42, 2-[3,5-dichloro-4-[1-[5-[[4-(2-methoxyethyl)-1-piperazinyl]methyl]-4-phenyl-2-thiazolyl]-1-methylethyl]phenyl]-1,2,4-triazine-3,5(2H,4H)-dione]	26
Cc1nc(C(C)(C)c2c(Cl)cc(-n3ncc(=O)[nH]c3=O)cc2Cl)sc1-c1ccccc1 [Compound 31, 2-[3,5-dichloro-4-[1-methyl-1-(4-methyl-5-phenyl-2-thiazolyl)ethyl]phenyl]-1,2,4-triazine-3,5(2H,4H)-dione]	87
CC(C)(c1noc(-c2cccnc2)n1)c1c(Cl)cc(-n2ncc(=O)[nH]c2=O)cc1Cl [Compound 124, 2-[3,5-dichloro-4-[1-methyl-1-[5-(3-pyridinyl)-1,2,4-oxadiazol-3-yl]ethyl]phenyl]-1,2,4-triazine-3,5(2H,4H)-dione]	86
Cc1sc(C(C)(C)c2c(Cl)cc(-n3ncc(=O)[nH]c3=O)cc2Cl)nc1-c1cccc(Cl)c1 [Compound 3, 2-[3,5-di-chloro-4-[1-[4-(3-chlorophenyl)-5-methyl-2-thiazolyl]-1-methylethyl]phenyl]-1,2,4-triazine-3,5(2H,4H)-dione]	92
CC(C)(c1nc(-c2ccccc2)c(C(O)c2ccccc2)s1)c1c(Cl)cc(-n2ncc(=O)[nH]c2=O)cc1Cl (racemic) [Compound 29, (±)-2-[3,5-dichloro-4-[1-[5-(hydroxyphenylmethyl)4-phenyl-2-thiazolyl]-1-methyl-ethyl]phenyl]-1,2,4-triazin-3,5(2H,4H)-dione]	71
Cc1ncccc1-c1nc(C(C)(C)c2c(Cl)cc(-n3ncc(=O)[nH]c3=O)cc2Cl)no1 [Compound 150, 2-[3,5-dichloro-4-[1-methyl-1-[5-(2-methyl-3-pyridinyl)-1,2,4-oxadiazol-3-yl]ethyl]phenyl]-1,2,4-triazine-3,5(2H,4H)-dione]	73
CC(C)(c1cc(Cl)c(-n2ncc(=O)[nH]c2=O)c(Cl)c1)c1nc(-c2ccccc2Cl)c(-c2cccc(C(N)=O)c2)s1 [Compound 62, 3-[2-[1-[3,5-dichloro-4-(4,5-dihydro-3,5-dioxo-1,2,4-triazin-2(3H)-yl)phenyl]-1-methylethyl]-4-(2-chlorophenyl)-5-thiazolyl]benzamide]	53
CN1CCN(C(=O)c2cccc(-c3sc(C(C)(C)c4c(Cl)cc(-n5ncc(=O)[nH]c5=O)cc4Cl)nc3-c3ccccc3Cl)c2)CC1 [Compound 61, 1-[3-[2-[1-[2,6-dichloro-4-(4,5-dihydro-3,5-dioxo-1,2,4-triazin-2(3H)-yl)phenyl]-1-methylethyl]-4-(2-chlorophenyl)-5-thiazolyl]benzoyl]-4-methylpiperazine]	29
